Consider 13 compounds from ChEMBL document CHEMBL3232727, “Evaluation of bisindole as potent β-glucuronidase inhibitors: synthesis and in silico based studies” (Bioorg Med Chem Lett, 2014).

One may read the inhibition as how much of the control response was suppressed. The term IC50 denotes the midpoint of a concentration-inhibition curve.

The target of one test is T1, Beta-glucuronidase (Bos taurus) (UniProt A3KMY8).
T1 sequence (whole entry): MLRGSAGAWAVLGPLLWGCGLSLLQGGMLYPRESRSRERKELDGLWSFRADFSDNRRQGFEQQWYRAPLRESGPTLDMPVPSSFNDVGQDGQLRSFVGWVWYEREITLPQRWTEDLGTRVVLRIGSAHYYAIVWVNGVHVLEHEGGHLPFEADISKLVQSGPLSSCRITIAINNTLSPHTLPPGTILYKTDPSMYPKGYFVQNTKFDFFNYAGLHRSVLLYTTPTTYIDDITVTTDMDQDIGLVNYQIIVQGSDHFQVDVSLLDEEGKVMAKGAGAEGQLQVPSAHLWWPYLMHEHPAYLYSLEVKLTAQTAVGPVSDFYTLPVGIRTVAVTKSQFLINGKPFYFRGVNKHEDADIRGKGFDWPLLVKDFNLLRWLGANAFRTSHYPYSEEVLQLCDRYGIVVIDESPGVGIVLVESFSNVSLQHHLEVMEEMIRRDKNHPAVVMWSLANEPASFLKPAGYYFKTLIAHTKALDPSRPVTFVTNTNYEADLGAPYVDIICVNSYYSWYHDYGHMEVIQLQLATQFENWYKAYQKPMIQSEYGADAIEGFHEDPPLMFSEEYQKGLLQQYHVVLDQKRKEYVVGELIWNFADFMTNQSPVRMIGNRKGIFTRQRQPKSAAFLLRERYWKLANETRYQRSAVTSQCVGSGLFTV
The test is described as follows: (§1) Inhibition of bovine liver beta-glucuronidase using p-nitrophenyl-beta-D-glucuronide as substrate after 30 mins by spectrophotometry. Also on record: concentration or dose not given beside the values.
On to `COc1ccccc1C(c1c[nH]c2ccc(Br)cc12)c1c[nH]c2ccc(Br)cc12`, for which the inhibition is below 50%.

Consider `CSc1ccc(C(c2c[nH]c3ccc(Br)cc23)c2c[nH]c3ccc(Br)cc23)cc1`, for which the inhibition was below 50%.

In turn, `O=[N+]([O-])c1ccc(C(c2c[nH]c3ccc(Br)cc23)c2c[nH]c3ccc(Br)cc23)cc1` displayed an inhibition below 50%.

With `COc1cc(C(c2c[nH]c3ccc(Br)cc23)c2c[nH]c3ccc(Br)cc23)ccc1O`, the inhibition was below 50%.

As for `CSc1ccc(C(c2c[nH]c3ccc(C#N)cc23)c2c[nH]c3ccc(C#N)cc23)cc1`, the inhibition is below 50%.

Compound `N#Cc1ccc2[nH]cc(C(c3ccc(Cl)c(Cl)c3)c3c[nH]c4ccc(C#N)cc34)c2c1` returned an inhibition below 50%.

Compound `O=[N+]([O-])c1ccccc1C(c1c[nH]c2ccc(Br)cc12)c1c[nH]c2ccc(Br)cc12` returned an inhibition below 50%.

For another test, the target named is T2, Beta-glucuronidase (Bos taurus, UniProt A3KMY8).
T2 sequence (A3KMY8 whole entry): T1 sequence (whole entry)
Described as §1.
In turn, `N#Cc1ccc2[nH]cc(C(c3ccccc3[N+](=O)[O-])c3c[nH]c4ccc(C#N)cc34)c2c1` came in with an IC50 of 19.9 µM.

On to `Cc1ccccc1C(c1c[nH]c2ccc(Br)cc12)c1c[nH]c2ccc(Br)cc12`, for which half-maximal inhibition (IC50) required 20.9 µM.

Turning to `Clc1cccc(C(c2c[nH]c3ccc(Br)cc23)c2c[nH]c3ccc(Br)cc23)c1`, the half-inhibitory concentration (IC50) was determined as 22.3 µM.

`Fc1ccccc1C(c1c[nH]c2ccc(Br)cc12)c1c[nH]c2ccc(Br)cc12` registered a half-inhibitory concentration (IC50) of 18.4 µM.

In the case of `Clc1ccc(C(c2c[nH]c3ccc(Br)cc23)c2c[nH]c3ccc(Br)cc23)cc1Cl`, half-maximal inhibition (IC50) was put at 21.5 µM.

In the case of `Oc1ccc(C(c2c[nH]c3ccc(Br)cc23)c2c[nH]c3ccc(Br)cc23)c(O)c1`, it took 1.62 µM to reach half-maximal inhibition (IC50).
